From the supplement of paper PMC11208160

assay: recombinant UMI read abundance after kanamycin selection (control-corrected) (log10(CPM+1)); higher = more efficient recombination; extreme values may be limits of the assay; sequences stand for … in AGTGCAGAGAAAATCGGCCAGTTTTCTCTGCCTGCAGTCCGCATGCCGTGGGACCCCTTGGGTTCTAACCTGTTGCCTAGATTTATGCAGCGGACTGCCTTTCTCCCAAAGTGATAAACCGG…AGGTTGGTTTCACT; site = the 11-nt donor
Summary of the method: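 After plating on IPTG (0.07 mM) plus kanamycin, or unselected, in two replicates, recombinant UMIs were PCR-amplified across the donor–target junction and sequenced. The cells were Escherichia coli co-electroporated with a UMI-tagged donor and donor-binding-loop pair library and a target plasmid with a fixed target and T7-inducible IS621 bridge recombinase. Values are log10(CPM+1), with CPM averaged over replicates and scaled by control-derived factors.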
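Further: IS621 bridge recombinase in Escherichia coli cells against a fixed T5 target plasmid.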

Sequence | recombinant UMI read abundance (log10)
CAATTGCCATGGACCGGTTTTCCCGGTAATCCGTATTTGCT (site CAATTACCTAG) | 0
CGATCATCATGGACCGGTTTTCCCGGTAATCCGTATTTGTT (site CGATCATCTAA) | 1.4
CAAGTGCCATGGACCGGTTTTCCCGGTAATCCGTATTTGTG (site CAAGGGCCTCA) | 0.21
TAAACTCCATGGACCGGTTTTCCCGGTAATCCGTATTTGTA (site TAAAATCCTTA) | 0.534
TTCTGGGCATGGACCGGTTTTCCCGGTAATCCGTATTTGCA (site TTCTGGGCTTG) | 0.345
ATGTATACATGGACCGGTTTTCCCGGTAATCCGTATTTGAC (site ATGTATACTGT) | 3.18
AATTATGCATGGACCGGTTTTCCCGGTAATCCGTATTTGGA (site CATTATGCTTC) | 1.51
TTGGAAACATGGACCGGTTTTCCCGGTAATCCGTATTTGCA (site TTGGAAACTTG) | 1.86
AGCCGAGCATGGACCGGTTTTCCCGGTAATCCGTATTTGTT (site AGCCGAGCTAA) | 0.837
GAATGGCCATGGACCGGTTTTCCCGGTAATCCGTATTTGCA (site GATTGGCCTTG) | 0
CGCCGTACATGGACCGGTTTTCCCGGTAATCCGTATTTGCT (site TGCCGTACTAG) | 0.0708
GGTCACACATGGACCGGTTTTCCCGGTAATCCGTATTTGTC (site GGTCACACTGA) | 2.3
GGGGAATCATGGACCGGTTTTCCCGGTAATCCGTATTTGGT (site GGGGAATCTAC) | 0.628
TCATCCTCATGGACCGGTTTTCCCGGTAATCCGTATTTGCA (site TCATCCTCTTG) | 0.741
CAAGCGCCATGGACCGGTTTTCCCGGTAATCCGTATTTGTG (site CAAGGGCCTCA) | 0.0216
GAATGGCCATGGACCGGTTTTCCCGGTAATCCGTATTTGCA (site GAATGGCCTTT) | 0.0193
CCGGTTACATGGACCGGTTTTCCCGGTAATCCGTATTTGCT (site CCGTTTACTAG) | 0
CAATTCCCATGGACCGGTTTTCCCGGTAATCCGTATTTGAT (site CAATTCCCTAA) | 0.00345
AGAAGCCCATGGACCGGTTTTCCCGGTAATCCGTATTTGTC (site AGAAGCCCTGA) | 1.43

Sequence | recombinant UMI read abundance (log10)
CCACGAACATGGACCGGTTTTCCCGGTAATCCGTATTTGTC (site TCACGAACTGA) | 0
GGGAAAACATGGACCGGTTTTCCCGGTAATCCGTATTTGCT (site GAGAAAACTAG) | 0
GGGGCACCATGGACCGGTTTTCCCGGTAATCCGTATTTGCT (site GGGGCACCTAG) | 0
CGCGAGTCATGGACCGGTTTTCCCGGTAATCCGTATTTGCC (site CGTGAGTCTGG) | 0.681
GAATGGCCATGGACCGGTTTTCCCGGTAATCCGTATTTGCA (site GAATGGCCTAG) | 0
CACTCCTCATGGACCGGTTTTCCCGGTAATCCGTATTTGCC (site CATTCCTCTGG) | 1.62
CACTTCCCATGGACCGGTTTTCCCGGTAATCCGTATTTGCT (site CAATTCCCTAG) | 0
TATTTGACATGGACCGGTTTTCCCGGTAATCCGTATTTGCT (site TACTTGACTAG) | 0.882
GCGTTAGCATGGACCGGTTTTCCCGGTAATCCGTATTTGTG (site ACGTTAGCTCA) | 0.84
ACCTAGACATGGACCGGTTTTCCCGGTAATCCGTATTTGCG (site ACCTAGACTCA) | 0.0199
CACGGCTCATGGACCGGTTTTCCCGGTAATCCGTATTTGTT (site CACGGCTCTAA) | 3.26
AACCTAGCATGGACCGGTTTTCCCGGTAATCCGTATTTGTT (site AGCCTAGCTAA) | 0.024
TTCAATTCATGGACCGGTTTTCCCGGTAATCCGTATTTGCC (site TCCAATTCTGG) | 0
GGTACGCCATGGACCGGTTTTCCCGGTAATCCGTATTTGTT (site GGTACGCCTAA) | 0.0149
ATTGCGACATGGACCGGTTTTCCCGGTAATCCGTATTTGGT (site ATTGAGACTAC) | 0.0594
TCGAAGCCATGGACCGGTTTTCCCGGTAATCCGTATTTGGG (site CCGAAGCCTCC) | 0.0131
GAGCTCACATGGACCGGTTTTCCCGGTAATCCGTATTTGGT (site GAGCTCACTAG) | 1.37
AAACGAACATGGACCGGTTTTCCCGGTAATCCGTATTTGTC (site ATACGAACTGA) | 0.767
CGGAATCCATGGACCGGTTTTCCCGGTAATCCGTATTTGTT (site GGGAATACTAA) | 0

Sequence | recombinant UMI read abundance (log10)
GGTCCAACATGGACCGGTTTTCCCGGTAATCCGTATTTGTG (site GGTCCAACTGA) | 0
TGCTTAGCATGGACCGGTTTTCCCGGTAATCCGTATTTGTC (site TGCTTAGCTGA) | 0
ATCTATACATGGACCGGTTTTCCCGGTAATCCGTATTTGAT (site ATCTATACTTT) | 0.00795
CTTAGAACATGGACCGGTTTTCCCGGTAATCCGTATTTGGC (site ATTAGAACTGC) | 0
CGGAATCCATGGACCGGTTTTCCCGGTAATCCGTATTTGTT (site CCGATTCCTAA) | 0.00402
CGGAATCCATGGACCGGTTTTCCCGGTAATCCGTATTTGTT (site CGGGATTCTAA) | 0
CACTCCTCATGGACCGGTTTTCCCGGTAATCCGTATTTGCG (site CACTCCTCTGG) | 0
CGGACTCCATGGACCGGTTTTCCCGGTAATCCGTATTTGTT (site CGGACTCCTAA) | 1.58
CGTTTGACATGGACCGGTTTTCCCGGTAATCCGTATTTGCT (site CGTTTGCCTAG) | 0
GCAGTGACATGGACCGGTTTTCCCGGTAATCCGTATTTGCG (site GCAGTGACTCG) | 2.18
CAGTCGGCATGGACCGGTTTTCCCGGTAATCCGTATTTGCT (site CAGTCGGCTAG) | 0.438
GCGAACCCATGGACCGGTTTTCCCGGTAATCCGTATTTGGG (site GCGAAGCCTCC) | 0.00885
AACCAAGCATGGACCGGTTTTCCCGGTAATCCGTATTTGAG (site ATCCAAGCTCT) | 0.642
CGATCATCATGGACCGGTTTTCCCGGTAATCCGTATTTGCT (site AGATCATCTTG) | 0
CCCTCCTCATGGACCGGTTTTCCCGGTAATCCGTATTTGCC (site CGCTCCTCTGG) | 0
CACTCCTCATGGACCGGTTTTCCCGGTAATCCGTATTTGCC (site CACTCCTCTAG) | 1.36
CGTTTGGCATGGACCGGTTTTCCCGGTAATCCGTATTTGCT (site GGTTTGGCTAG) | 0
CCCCAGACATGGACCGGTTTTCCCGGTAATCCGTATTTGTA (site CCCCACACTTA) | 0.0077
CAAGTCACATGGACCGGTTTTCCCGGTAATCCGTATTTGGA (site CAAGTCACTAC) | 0.358
